Results as given in patent US20100305068A1, “COMPOUNDS AND METHODS FOR MODULATING PROTEIN TRAFFICKING” (priority 2006, published 2010).

Test system: pdr5 ypt1^ts cells
Experiment: microbe, parasite or virus in culture
Format: cell-based, yeast
Settings: 37° C.; for minimal effective concentration: Saccharomyces cerevisiae, lowest concentration tested giving growth above the 0 μM background, read-out: ypt1-ts MRC (minimal rescue concentration); for minimal effective concentration / optical density, ypt1-ts, 0.39 / optical density, ypt1-ts, 0.78 / optical density, ypt1-ts, 1.56 / optical density, ypt1-ts, 3.13 / optical density, ypt1-ts, 12.5 / optical density, ypt1-ts, 25 / optical density, ypt1-ts, 6.25: Table 2; for optical density, ypt1-ts, 0.39: 0.39 μM compound; for optical density, ypt1-ts, 0.39 / optical density, ypt1-ts, 0.78 / optical density, ypt1-ts, 1.56 / optical density, ypt1-ts, 3.13 / optical density, ypt1-ts, 12.5 / optical density, ypt1-ts, 25 / optical density, ypt1-ts, 6.25: background (0 μM) 0.058; for optical density, ypt1-ts, 0.78: 0.78 μM compound; for optical density, ypt1-ts, 1.56: 1.56 μM compound; for optical density, ypt1-ts, 3.13: 3.13 μM compound; for optical density, ypt1-ts, 12.5: 12.5 μM compound; for optical density, ypt1-ts, 25: 25 μM compound; for optical density, 3.13 uM / optical density, 12.5 uM / optical density, 50 uM: Table 3, background (0 uM) 0.077; for optical density, 3.13 uM: 3.13 uM compound; for optical density, 12.5 uM: 12.5 uM compound; for optical density, 50 uM: 50 uM compound; for optical density, ypt1-ts, 6.25: 6.25 μM compound
Outline: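 Whole-cell yeast growth-rescue screen: pdr5 ypt1^ts cells (efflux pump inactivated), growth-arrested at 37° C., cultured with compounds at 37° C. Restoration of growth read by optical density.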

CCCCC1C(=O)N(c2ccccc2)N(c2ccccc2)C1=O [PHENYLBUTAZONE, reference compound] was tested, and the minimal effective concentration was 6.25 µM, the “optical density, ypt1-ts, 0.39” value was 0.1 and the “optical density, ypt1-ts, 0.78” value was 0.084. For the same molecule, the “optical density, ypt1-ts, 1.56” value was 0.094, the “optical density, ypt1-ts, 3.13” value was 0.11 and the “optical density, ypt1-ts, 12.5” value was 0.227. For the same molecule, the “optical density, ypt1-ts, 25” value was 0.452.

With O=C(/C=C/C=C/c1ccc2c(c1)OCO2)N1CCCCC1 [PIPERINE] the “optical density, 3.13 uM” value was 0.107, the “optical density, 12.5 uM” value was 0.135 and the “optical density, 50 uM” value was 0.377.

CC(C)=CCOc1cc2oc(=O)ccc2cc1O [PRENYLETIN] was tested, and the minimal effective concentration was 25 µM, the “optical density, ypt1-ts, 0.39” value was 0.087 and the “optical density, ypt1-ts, 0.78” value was 0.072. For the same molecule, the “optical density, ypt1-ts, 1.56” value was 0.07, the “optical density, ypt1-ts, 3.13” value was 0.087 and the “optical density, ypt1-ts, 6.25” value was 0.09. For the same molecule, the “optical density, ypt1-ts, 12.5” value was 0.121 and the “optical density, ypt1-ts, 25” value was 0.292.

In the case of COC(=O)[C@]1(C)CC[C@]2(C)CC[C@]3(C)C4=CC=C5C(=CC(=O)C(O)=C5C)[C@]4(C)CC[C@@]3(C)[C@@H]2C1 [PRISTIMERIN], the “optical density, ypt1-ts, 0.39” value is reported as 0.534, the “optical density, ypt1-ts, 0.78” value is reported as 0.332 and the “optical density, ypt1-ts, 1.56” value is reported as 0.669. The “optical density, ypt1-ts, 3.13” value was 0.703, the “optical density, ypt1-ts, 6.25” value was 0.68 and the “optical density, ypt1-ts, 12.5” value was 0.676. The “optical density, ypt1-ts, 25” value was 0.677.

COC(=O)[C@]1(C)CC[C@]2(C)CC[C@]3(C)C4=CCc5c(cc(O)c(O)c5C)[C@]4(C)CC[C@@]3(C)[C@@H]2C1 [PRISTIMEROL] was tested, and the minimal effective concentration was 6.25 µM, the “optical density, ypt1-ts, 0.39” value was 0.11 and the “optical density, ypt1-ts, 0.78” value was 0.079. The “optical density, ypt1-ts, 1.56” value was 0.101, the “optical density, ypt1-ts, 3.13” value was 0.114 and the “optical density, ypt1-ts, 6.25” value was 0.168. The “optical density, ypt1-ts, 12.5” value was 0.362 and the “optical density, ypt1-ts, 25” value was 0.591.

CC(=O)[C@H]1CC[C@H]2[C@@H]3CCC4=CC(=O)CC[C@]4(C)[C@H]3CC[C@]12C [PROGESTERONE, reference compound] was tested, and the minimal effective concentration was 12.5 µM, the “optical density, ypt1-ts, 0.39” value was 0.089 and the “optical density, ypt1-ts, 0.78” value was 0.083. The “optical density, ypt1-ts, 1.56” value was 0.091, the “optical density, ypt1-ts, 3.13” value was 0.098 and the “optical density, ypt1-ts, 6.25” value was 0.12. The “optical density, ypt1-ts, 12.5” value was 0.15 and the “optical density, ypt1-ts, 25” value was 0.316.

CC(C)N(C(=O)CCl)c1ccccc1 [PROPACHLOR] was tested, and the minimal effective concentration was 6.25 µM, the “optical density, ypt1-ts, 0.39” value was 0.101 and the “optical density, ypt1-ts, 0.78” value was 0.085. The “optical density, ypt1-ts, 1.56” value was 0.098, the “optical density, ypt1-ts, 3.13” value was 0.121 and the “optical density, ypt1-ts, 6.25” value was 0.141. The “optical density, ypt1-ts, 12.5” value was 0.177 and the “optical density, ypt1-ts, 25” value was 0.184.

In the case of CCC(=O)Nc1ccc(Cl)c(Cl)c1 [PROPANIL], the minimal effective concentration is reported as 12.5 µM, the “optical density, ypt1-ts, 0.39” value is reported as 0.084 and the “optical density, ypt1-ts, 0.78” value is reported as 0.072. For the same molecule, the “optical density, ypt1-ts, 1.56” value was 0.076, the “optical density, ypt1-ts, 3.13” value was 0.097 and the “optical density, ypt1-ts, 6.25” value was 0.108. For the same molecule, the “optical density, ypt1-ts, 12.5” value was 0.217 and the “optical density, ypt1-ts, 25” value was 0.564.

CNC(=O)Oc1ccccc1OC(C)C [PROPOXUR] was tested, and the “optical density, 3.13 uM” value was 0.194, the “optical density, 12.5 uM” value was 0.289 and the “optical density, 50 uM” value was 0.231.

With C/C=C(\C)C(=O)O[C@@H]1c2c(ccc3ccc(=O)oc23)OC(C)(C)[C@@H]1OC(C)=O [PTERYXIN] the minimal effective concentration was 6.25 µM, the “optical density, ypt1-ts, 0.39” value was 0.103 and the “optical density, ypt1-ts, 0.78” value was 0.078. For the same molecule, the “optical density, ypt1-ts, 1.56” value was 0.096, the “optical density, ypt1-ts, 3.13” value was 0.124 and the “optical density, ypt1-ts, 6.25” value was 0.134. The “optical density, ypt1-ts, 12.5” value was 0.26 and the “optical density, ypt1-ts, 25” value was 0.479.

COc1ccc(/C=C/c2cc(O)cc(O)c2)cc1 [RESVERA- TROL 4′- METHYL ETHER] was tested, and the “optical density, 3.13 uM” value was 0.08, the “optical density, 12.5 uM” value was 0.103 and the “optical density, 50 uM” value was 0.331.

In the case of C[n+]1cc2c3c(ccc2c2ccc4cc5c(cc4c21)OCO5)OCO3.O=S(=O)([O-])O [SANGUINARINE SULFATE], the minimal effective concentration is reported as 12.5 µM, the “optical density, ypt1-ts, 0.39” value is reported as 0.092 and the “optical density, ypt1-ts, 0.78” value is reported as 0.076. The “optical density, ypt1-ts, 1.56” value was 0.077, the “optical density, ypt1-ts, 3.13” value was 0.089 and the “optical density, ypt1-ts, 6.25” value was 0.111. The “optical density, ypt1-ts, 12.5” value was 0.165 and the “optical density, ypt1-ts, 25” value was 0.345.

In the case of CC1=CC(=O)[C@H]2C(C)(C)CCC[C@]2(C)[C@@]1(O)CCc1ccoc1 [SOLIDAGENONE], the minimal effective concentration is reported as 6.25 µM, the “optical density, ypt1-ts, 0.39” value is reported as 0.092 and the “optical density, ypt1-ts, 0.78” value is reported as 0.077. The “optical density, ypt1-ts, 1.56” value was 0.086, the “optical density, ypt1-ts, 3.13” value was 0.11 and the “optical density, ypt1-ts, 6.25” value was 0.141. The “optical density, ypt1-ts, 12.5” value was 0.439 and the “optical density, ypt1-ts, 25” value was 0.62.

With CCCCC1(COC(=O)CCC(=O)O)C(=O)N(c2ccccc2)N(c2ccccc2)C1=O [SUXIBUZONE, reference compound] the minimal effective concentration was 3.13 µM, the “optical density, ypt1-ts, 0.39” value was 0.101 and the “optical density, ypt1-ts, 0.78” value was 0.078. For the same molecule, the “optical density, ypt1-ts, 1.56” value was 0.093, the “optical density, ypt1-ts, 3.13” value was 0.127 and the “optical density, ypt1-ts, 6.25” value was 0.173. For the same molecule, the “optical density, ypt1-ts, 12.5” value was 0.329 and the “optical density, ypt1-ts, 25” value was 0.536.
